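In this assay, cells in 96-well plates receive the compound at five concentrations for 48 hours. Endpoints are linearly interpolated between the surrounding concentrations. TGI denotes the concentration required for complete inhibition of growth.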

Some test systems named below: 786-0 renal; COLO 205 colon; HCC-2998 colon; HCT-15 colon; HL-60(TB) leukemia; KM12 colon; M14 melanoma; MDA-N; MOLT-4 leukemia; OVCAR-4 ovarian; SR leukemia; ACHN renal; CAKI-1 renal; A498 renal.
Holding throughout (assay): NCI anticancer screen, dose series, 48 h

Take `CC1(C)OCC2(CO1)CSCCCSCC1(COC(C)(C)OC1)CSCCCSC2`: the TGI in the test with 786-0 renal, in the test on COLO 205 colon, in the test with HCC-2998 colon, in the test with HCT-15 colon, in the test on HL-60(TB) leukemia and in the test with KM12 colon was over 100 µM each time. Also, the TGI in the test with M14 melanoma, with MDA-N, in the test on MOLT-4 leukemia, in the test on OVCAR-4 ovarian and in the test with SR leukemia was over 100 µM each time.
Turning to `C=C(C)C#CC(O)(C(=O)OC1CCN(C)CC1)C(C)C` (centres undefined), the TGI with 786-0 renal, in the test on ACHN renal, with CAKI-1 renal, in the test with COLO 205 colon, in the test on HCC-2998 colon and with HCT-15 colon was over 100 µM each time. Further, the TGI in the test with HL-60(TB) leukemia, with KM12 colon, with M14 melanoma, in the test on MDA-N, in the test with MOLT-4 leukemia and in the test on SR leukemia was over 100 µM throughout.
Consider `O=C(c1ccco1)C1CC(c2ccc3ccccc3c2O)=NN1` (centres undefined), for which the TGI in the test with 786-0 renal, with A498 renal, in the test on ACHN renal, with CAKI-1 renal, in the test with COLO 205 colon and with HCC-2998 colon was over 100 µM in each case. For the same compound, the TGI in the test with HCT-15 colon, in the test on KM12 colon, in the test with M14 melanoma, in the test with MDA-N, in the test with MOLT-4 leukemia and with OVCAR-4 ovarian was over 100 µM in each case. The compound further had a TGI in the test with SR leukemia of over 100 µM.
Consider `COc1cc(O)c2c(=O)c(OC)c(-c3ccc4c(c3)OCO4)oc2c1`, for which the TGI is over 100 µM in the test with 786-0 renal; over 89.3 µM in the test with A498 renal; over 100 µM with ACHN renal; over 100 µM in the test on CAKI-1 renal; over 100 µM with COLO 205 colon; over 100 µM with HCC-2998 colon. Besides, the TGI with HCT-15 colon, in the test on HL-60(TB) leukemia, with KM12 colon, with M14 melanoma, in the test on MDA-N and with MOLT-4 leukemia was over 100 µM each time. In the test with SR leukemia, this compound gave a TGI of over 100 µM.
For the compound `CCOc1cc(-c2nc3ccccn3c2/N=C/c2cc([N+](=O)[O-])cc([N+](=O)[O-])c2O)ccc1O`, the TGI with 786-0 renal, with A498 renal, with ACHN renal, in the test with CAKI-1 renal, in the test with COLO 205 colon and with HCT-15 colon was over 100 µM in each case. Also, the TGI with HL-60(TB) leukemia, in the test with KM12 colon, with M14 melanoma, with MDA-N, with MOLT-4 leukemia and in the test on OVCAR-4 ovarian was over 100 µM throughout. In the test with SR leukemia, this compound yielded a TGI of over 100 µM.
Take `Oc1[nH]c2ccccc2c1N=NC(=S)N1CCCCC1`: the TGI in the test with 786-0 renal is 6.64 µM; in the test on A498 renal, 1.99 µM; in the test with ACHN renal it was 5.97 µM; with CAKI-1 renal, 4.43 µM; in the test on COLO 205 colon it was 11.2 µM; with HCC-2998 colon, 8.87 µM. Moreover, the TGI with HCT-15 colon is 2.42 µM; in the test with KM12 colon, 1.62 µM; in the test on M14 melanoma, 2.23 µM; with MDA-N it was 15.5 µM; with MOLT-4 leukemia, 2.15 µM; in the test with OVCAR-4 ovarian, 4.48 µM. Further, the TGI in the test on SR leukemia stood at 4.31 µM.
As for `COC(=O)/C=C/c1cnc2c(c1)oc(=O)n2CCc1ccccn1`, the TGI with 786-0 renal, in the test with A498 renal, with ACHN renal, in the test on COLO 205 colon, with HCC-2998 colon and in the test on HCT-15 colon was over 100 µM throughout. For the same compound, the TGI was 9.78 µM with HL-60(TB) leukemia; over 100 µM in the test on KM12 colon; over 100 µM with M14 melanoma; over 100 µM with MDA-N; over 100 µM with MOLT-4 leukemia; over 100 µM in the test on OVCAR-4 ovarian. Further, the TGI in the test on SR leukemia is over 100 µM.
Turning to `Cc1nc(Cl)c2sc(=S)n(-c3ccc(F)cc3)c2n1`, the TGI was 11.9 µM in the test with 786-0 renal; 7.23 µM with A498 renal; 26.8 µM with ACHN renal; 3.11 µM in the test on CAKI-1 renal; 16.6 µM in the test on COLO 205 colon; 20.3 µM with HCC-2998 colon. Also, the TGI worked out at 15.1 µM with HCT-15 colon; 43.2 µM in the test on HL-60(TB) leukemia; 25.3 µM in the test on KM12 colon; 8.38 µM in the test with M14 melanoma; 3.95 µM in the test on MDA-N; 31.4 µM in the test with OVCAR-4 ovarian. Further, the TGI with SR leukemia amounted to 2.99 µM.
On to `CCC[C@H](O)[C@@H](CNc1cc(NC(C)=O)nc(NC(C)=O)n1)N(Cc1ccccc1)Cc1ccccc1`, for which the TGI is 38.6 µM in the test with 786-0 renal; over 100 µM in the test on A498 renal; 56.8 µM in the test with ACHN renal; 38.5 µM in the test with CAKI-1 renal; over 100 µM in the test with COLO 205 colon; over 100 µM with HCC-2998 colon. For the same compound, the TGI is over 100 µM with HCT-15 colon; 39.1 µM in the test on KM12 colon; over 100 µM with M14 melanoma; over 100 µM in the test with MDA-N; over 100 µM in the test on MOLT-4 leukemia; over 100 µM in the test with OVCAR-4 ovarian. Moreover, in the test with SR leukemia, the TGI is over 100 µM.
With `C=C[C@@H](OCOCC[Si](C)(C)C)[C@@H](CC)OC(CCCOC(=O)C(C)(C)C)OC` (some centres undefined), the TGI is 88.5 µM with 786-0 renal; over 100 µM in the test on A498 renal; over 100 µM with ACHN renal; over 100 µM with CAKI-1 renal; 95.1 µM in the test with COLO 205 colon; 50.9 µM in the test with HCT-15 colon. For the same compound, the TGI in the test on HL-60(TB) leukemia was 49.6 µM; in the test on KM12 colon it was 63 µM; with M14 melanoma, over 100 µM; with MDA-N it was over 100 µM; in the test with MOLT-4 leukemia, over 100 µM; in the test with OVCAR-4 ovarian, over 100 µM. The TGI with SR leukemia was over 100 µM.
In the case of `O=c1[nH]c(=O)n(C2CC(O)C(CO)O2)cc1NN=NCCc1ccccc1` (centres undefined), the TGI in the test with 786-0 renal, with ACHN renal, in the test on CAKI-1 renal, in the test with COLO 205 colon, with HCT-15 colon and in the test with HL-60(TB) leukemia was over 100 µM each time. The TGI in the test on KM12 colon, in the test with M14 melanoma, with MDA-N, with MOLT-4 leukemia, in the test on OVCAR-4 ovarian and with SR leukemia was over 100 µM each time.

The values are drawn from PubChem BioAssay (NCI).
